Measured values taken from ChEMBL document CHEMBL2074485, “Identification of thyroid hormone transporters in humans: different molecules are involved in a tissue-specific manner” (Endocrinology, 2001).
Blank lines part the entries; values can stand above or below the molecule they belong to.

Key:
[1] = target: T1, Solute carrier organic anion transporter family member 4A1 (Homo sapiens, UniProt Q96BD0); assay: TP_TRANSPORTER: inhibition of T3 uptake (T3: 1 uM, T4: 100 uM) in Xenopus laevis oocytes; format: functional, cell-based; conditions: oocyte
T1 sequence (Q96BD0 whole entry): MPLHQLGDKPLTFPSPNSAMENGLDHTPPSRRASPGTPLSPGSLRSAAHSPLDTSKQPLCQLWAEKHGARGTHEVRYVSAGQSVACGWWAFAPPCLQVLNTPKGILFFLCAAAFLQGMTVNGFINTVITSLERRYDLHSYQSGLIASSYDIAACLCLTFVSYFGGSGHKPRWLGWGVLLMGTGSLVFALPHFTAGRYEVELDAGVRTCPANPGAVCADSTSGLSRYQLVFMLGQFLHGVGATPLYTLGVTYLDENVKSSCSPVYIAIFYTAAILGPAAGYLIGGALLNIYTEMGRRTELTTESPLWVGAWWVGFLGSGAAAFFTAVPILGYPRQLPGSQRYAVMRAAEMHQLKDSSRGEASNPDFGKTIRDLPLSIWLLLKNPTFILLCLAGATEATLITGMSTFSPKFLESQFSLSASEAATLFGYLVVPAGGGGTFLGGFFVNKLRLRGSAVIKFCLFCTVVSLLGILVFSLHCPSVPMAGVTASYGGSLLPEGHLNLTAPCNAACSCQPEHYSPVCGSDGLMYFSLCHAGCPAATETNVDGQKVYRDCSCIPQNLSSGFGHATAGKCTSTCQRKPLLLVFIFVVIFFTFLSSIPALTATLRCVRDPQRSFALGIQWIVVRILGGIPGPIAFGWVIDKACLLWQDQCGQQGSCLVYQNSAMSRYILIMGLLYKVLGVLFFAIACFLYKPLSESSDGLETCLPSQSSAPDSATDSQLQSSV

[2] = target: T1, Solute carrier organic anion transporter family member 4A1; assay: (§1) TP_TRANSPORTER: uptake in Xenopus laevis oocytes; format: functional, cell-based; conditions: oocyte
[3] = target: T2, Solute carrier organic anion transporter family member 1A2 (OATP1A2, SLCO1A2) (Homo sapiens, UniProt P46721); assay: as §1; conditions: Xenopus laevis oocytes expressing the transporter
T2 sequence (P46721 whole entry): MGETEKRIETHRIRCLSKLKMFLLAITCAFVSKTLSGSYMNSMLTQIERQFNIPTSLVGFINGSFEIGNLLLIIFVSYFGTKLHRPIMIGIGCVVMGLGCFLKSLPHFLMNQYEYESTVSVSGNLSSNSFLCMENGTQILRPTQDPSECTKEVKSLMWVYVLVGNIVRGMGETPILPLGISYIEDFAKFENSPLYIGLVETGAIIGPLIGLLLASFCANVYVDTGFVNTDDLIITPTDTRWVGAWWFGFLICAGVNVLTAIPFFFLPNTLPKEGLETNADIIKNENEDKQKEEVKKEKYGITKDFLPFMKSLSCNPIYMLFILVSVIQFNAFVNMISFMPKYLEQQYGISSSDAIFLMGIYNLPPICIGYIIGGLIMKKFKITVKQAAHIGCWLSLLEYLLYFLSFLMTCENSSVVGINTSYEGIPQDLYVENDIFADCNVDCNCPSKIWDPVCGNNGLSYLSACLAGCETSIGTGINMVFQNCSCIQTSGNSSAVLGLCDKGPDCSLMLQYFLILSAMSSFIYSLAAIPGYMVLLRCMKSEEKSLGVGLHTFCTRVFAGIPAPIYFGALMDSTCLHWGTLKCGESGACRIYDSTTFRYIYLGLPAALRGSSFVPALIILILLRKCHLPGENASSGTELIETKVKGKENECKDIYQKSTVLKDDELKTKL

[4] = target: T1, Solute carrier organic anion transporter family member 4A1; assay: TP_TRANSPORTER: inhibition of Taurocholate uptake (Taurochorate: 5 uM, T3: 50 uM) in Xenopus laevis oocytes; format: functional, cell-based; conditions: oocyte
[5] = target: T1, Solute carrier organic anion transporter family member 4A1; assay: TP_TRANSPORTER: inhibition of Taurocholate uptake (Taurochorate: 5 uM, BSP: 50 uM) in Xenopus laevis oocytes; format: functional, cell-based; conditions: oocyte
[6] = substrate: N[C@@H](Cc1cc(I)c(Oc2ccc(O)c(I)c2)c(I)c1)C(=O)O; assay: as §1; format: functional, cell-based, Oocyte

Activity [2]: substrate [+] | Km [3]: 8 µM
Molecule: N[C@@H](Cc1cc(I)c(Oc2cc(I)c(O)c(I)c2)c(I)c1)C(=O)O [LEVOTHYROXINE]
Activity [1]: inhibitor [(at a rough estimate) 15 % of control]

Molecule: N[C@@H](Cc1cc(I)c(Oc2ccc(O)c(I)c2)c(I)c1)C(=O)O [LIOTHYRONINE]
Activity [4]: inhibitor [(at a rough estimate) 30 % of control]

Molecule: N[C@@H](Cc1ccc(Oc2cc(I)c(O)c(I)c2)c(I)c1)C(=O)O [REVERSE TRIIODOTHYRONINE]
Activity [2]: substrate [+]

Molecule: O=C1OC(c2ccc(O)c(S(=O)(=O)[O-])c2)(c2ccc(O)c(S(=O)(=O)[O-])c2)c2c(Br)c(Br)c(Br)c(Br)c21.[Na+].[Na+] [SULFOBROMOPHTHALEIN SODIUM]
Activity [5]: inhibitor [(at a rough estimate) 15 % of control]

B1: Solute carrier organic anion transporter family member 4A1 (Homo sapiens) (protein)
chain: T1 sequence (Q96BD0 whole entry)
Km [6]: 0.9 µM
